The term EC50 denotes the midpoint of the concentration-response curve. As usually defined, the GI50 is the concentration giving 50% growth inhibition.

Experimental findings from US11466006B2, “Dual selective PI3 delta and gamma kinase inhibitors” (Rhizen Pharmaceuticals SA, priority 2013, dated 2022) are described below.

The target of series [1] is PI3Kδ (Homo sapiens, UniProt O00329). Description: Anti-FcεR1 induced CD63 expression in basophils from human whole blood. The class given is cell-based. Also on record: Add 49 μl of patient's whole blood to each tube; endogenous in cells; host or cells: basophils in human whole blood. The conditions noted are these: n=10, read-out: EC50 for FcεR1 (PI3K δ), CD63 positive basophils. The procedure: PI3K δ and γ signalling in basophils manifested by an alteration of anti-FcεR1 or fMLP induced CD63 expression is a useful pharmacodynamic marker determined using the Flow2CAST® kit (Buhlmann Laboratories, Switzerland). Briefly, it involves the following steps: • Mix the anti-coagulated blood sample by inverting the venipuncture tube several times; • Prepare fresh and pyrogen-free 3.5 ml polypropylene or polystyrene tubes suitable for Flow Cytometry measurements; • Add 49 μl of patient's whole blood to each tube; • Add 1 μl of 10% DMSO (background) or compound (10% DMSO) to the assigned tubes and mix gently. Incubate at room temperature for 15 minutes; • Pipet 50 μl of the Stimulation buffer (background) or anti-FcεRI Ab or or fMLP to each tube; • Add 100 μl of Stimulation Buffer to each tube; • Mix gently. Add 20 μl Staining Reagent (1:1 mix of FITC-CD63 and PE-CCR3) to each tube; • Mix gently, cover the tubes and incubate for 15 minutes at 37° C. in a water bath. […]
Chain of PI3Kδ (O00329 whole entry): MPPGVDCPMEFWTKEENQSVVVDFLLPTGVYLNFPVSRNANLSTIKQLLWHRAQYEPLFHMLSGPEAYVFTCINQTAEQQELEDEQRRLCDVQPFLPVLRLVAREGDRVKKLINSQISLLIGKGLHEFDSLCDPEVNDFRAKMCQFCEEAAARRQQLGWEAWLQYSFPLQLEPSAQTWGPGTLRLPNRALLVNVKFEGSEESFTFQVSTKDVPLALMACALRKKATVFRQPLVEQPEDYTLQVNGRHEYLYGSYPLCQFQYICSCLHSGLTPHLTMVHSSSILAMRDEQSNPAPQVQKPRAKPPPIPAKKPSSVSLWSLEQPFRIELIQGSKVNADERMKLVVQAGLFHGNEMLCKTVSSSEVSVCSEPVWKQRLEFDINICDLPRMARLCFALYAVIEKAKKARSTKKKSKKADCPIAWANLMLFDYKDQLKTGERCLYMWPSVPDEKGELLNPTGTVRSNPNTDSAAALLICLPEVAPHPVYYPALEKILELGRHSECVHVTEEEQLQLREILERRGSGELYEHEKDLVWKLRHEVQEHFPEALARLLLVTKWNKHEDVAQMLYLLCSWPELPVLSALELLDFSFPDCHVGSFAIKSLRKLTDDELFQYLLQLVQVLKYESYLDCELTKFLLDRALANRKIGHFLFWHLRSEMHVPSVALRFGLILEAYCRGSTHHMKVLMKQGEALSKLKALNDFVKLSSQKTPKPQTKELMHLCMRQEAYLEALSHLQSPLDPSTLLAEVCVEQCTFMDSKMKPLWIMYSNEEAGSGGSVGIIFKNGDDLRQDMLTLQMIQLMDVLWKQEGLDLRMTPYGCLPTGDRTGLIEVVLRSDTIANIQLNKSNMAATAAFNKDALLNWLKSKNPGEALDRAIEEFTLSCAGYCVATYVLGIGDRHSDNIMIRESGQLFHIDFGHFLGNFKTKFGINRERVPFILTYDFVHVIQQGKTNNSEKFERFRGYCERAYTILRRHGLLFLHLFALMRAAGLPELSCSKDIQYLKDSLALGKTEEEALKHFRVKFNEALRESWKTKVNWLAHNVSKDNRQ
Chain of PI3Kδ (P27986 whole entry partner): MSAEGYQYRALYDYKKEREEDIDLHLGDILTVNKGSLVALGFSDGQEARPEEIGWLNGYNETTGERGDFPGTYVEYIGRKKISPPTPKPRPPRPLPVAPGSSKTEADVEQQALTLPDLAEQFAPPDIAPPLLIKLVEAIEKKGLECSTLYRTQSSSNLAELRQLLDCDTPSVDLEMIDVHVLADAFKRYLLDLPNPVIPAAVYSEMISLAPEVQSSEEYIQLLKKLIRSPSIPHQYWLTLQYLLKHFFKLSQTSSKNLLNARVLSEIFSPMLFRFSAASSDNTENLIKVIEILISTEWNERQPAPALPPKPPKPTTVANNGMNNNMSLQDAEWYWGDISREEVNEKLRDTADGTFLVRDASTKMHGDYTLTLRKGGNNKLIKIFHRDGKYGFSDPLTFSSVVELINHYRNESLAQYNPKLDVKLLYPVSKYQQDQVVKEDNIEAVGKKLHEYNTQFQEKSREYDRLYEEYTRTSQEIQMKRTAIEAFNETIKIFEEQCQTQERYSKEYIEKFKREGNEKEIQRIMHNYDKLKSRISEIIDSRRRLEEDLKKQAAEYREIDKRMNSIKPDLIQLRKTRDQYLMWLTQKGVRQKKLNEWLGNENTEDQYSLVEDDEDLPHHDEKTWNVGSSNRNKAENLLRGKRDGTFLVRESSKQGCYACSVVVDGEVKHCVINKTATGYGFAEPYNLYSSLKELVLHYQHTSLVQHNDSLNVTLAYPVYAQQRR
Percent CD63 positive cells within the gated basophil population were determined in different treatment groups and normalized to vehicle control.

Series [2] concerns male Balb/c mice. Description: Acute cigarette smoke induced cell infiltration in male Balb/c mice. The conditions noted are these: 0.3, 1, or 3 mg/kg/BID, cigarette smoke exposed mice. The format is in vivo, mouse. The source says:
Animals (male Balb/c mice) are to be acclimatized for seven days prior to the start of the experiment. Animals are then to be randomly distributed to various groups based on their body weights. On day 1, mice is to be administered test compound or vehicle by oral/intranasal route and after 1 hr test compound administration animals are to be placed in whole body exposure box. On day 1 and d2 mice are exposed to the mainstream smoke of 6 cigarettes and of 8 cigarettes on day 3, and of 10 cigarettes on day 4. […] The total number of white blood cells is to be determined in BAL fluid and blood using a blood cell counter and adjusted to 1×10^6 cell/ml. Differential cell count is calculated manually. […] The number of each cell type among 300 white blood cells in the cell smear are to be determined and expressed as a percentage, and the number of neutrophils and macrophages in each BAL fluid are to be calculated. • Results: As depicted in FIGS. 7A and 7B, Compound A1 reduced macrophages and neutrophil infiltration into BALF thereby indicating a therapeutic role in chronic obstructive pulmonary diseases Assay 16: Ovalbumin-Induced Nasal Eosinophil and Neutrophil Accumulation in Mice

Series [3] concerns Female Wistar rats. The series can be described thus: Lipopolysaccharide induced pulmonary neutrophilia in female Wistar rat model. The class given is in vivo. The note with it: Neutrophil, oral gavage, 1 h before intratracheal LPS, BAL at 6 h, read-out: ED50, reduction of neutrophil infiltration into the lungs. As to the method: After the quarantine period, fasted animals were randomized and divided into various groups depending on their body weights. The test compound [Compound A1] was prepared as a suspension in a vehicle consisting of 0.5% methylcellulose in which Tween 80 as a suspending agent. The compound or vehicle was administered by oral gavage in a volume of 10 mL/kg. Female Wistar rats were anaesthetized with ketamine and LPS solution was administered intratracheally one hour after compound administration at a dose of 1 mg/kg. 6 h after LPS instillation, animals were exsanguinated under anaesthesia, and then trachea was cannulated and the lungs were lavaged with 5-ml aliquots of heparinised PBS (1 unit/ml) four times through tracheal cannula (total volume 20 ml). Bronchoalveolar lavage (BAL) fluid was been stored at 2-8° C. until assayed for total cell and differential leukocyte count. Bronchioalveolar fluid was centrifuged (500×g for 10 min) and the resulting cell pellet was resuspended in 0.5 ml of heparinised saline. The total numbers of white blood cells were determined in BAL fluid or blood by using a blood cell counter and was adjusted to 1×10^6 cell/ml. Differential cell count was calculated manually. […] The number of each cell type among 300 white blood cells in the cell smear was determined and expressed as a percentage. The number of eosinophil in each BALf or blood was calculated.

Series [4] has as its system T-lymphoma (MOLT-4, Jurkat, CCRF-CEM, Hut-78 & HuT-102) cells. The series can be described thus: In vitro cell proliferation assay in leukemic cell lines (MTT). The class given is cell-based. As to the method:
Growth inhibition assays were carried out using 10% FBS supplemented media. Cells were seeded at a concentration of 5000-20,000 cells/well in a 96-well plate. Test compounds at a concentration range from 0.01 to 10000 nM were added after 24 h. Growth was assessed using the 3-[4,5-dimethylthiazol-2-yl]-2,5-diphenyltetrazolium bromide (MTT) dye reduction test at 0 h (prior to the addition of the test compound) and 72 h after the addition of test compound. Absorbance was read on a Fluostar Optima (BMG Labtech, Germany) at a wave length of 450 nm. Data were analysed using GraphPad Prism and percent inhibition due to the test compound compared to the control was calculated accordingly.

A value given as a limit tells only on which side of the number the result lay.

On to `CC[C@H](Nc1ncnc2[nH]cnc12)c1oc2ccccc2c(=O)c1-c1cccc(F)c1` [Compound A1, (S)-2-(1-(9H-purin-6-ylamino)propyl)-3-(3-fluorophenyl)-4H-chromen-4-one], for which the EC50 in series [1] is below 0.04 µM. Further, the “macrophages and neutrophil infiltration into BALF” value in series [2] is “reduced”. Besides, in series [3], the ED50 amounted to 6.5 mg/kg. Also, the apparent cytotoxicity entry in series [4] (72-h incubation period, up to 10 μM) is “did not display any apparent cytotoxicity”. Further, the GI50 in series [4] (MOLT-4, Jurkat, CCRF-CEM, Hut-78 & HuT-102, 72 h, MTT, read-out: GI50, reduction in T-lymphoma cell viability) fell in the range of 1 to 5 µM.
